Experimental findings from DBAASP are described below.

Holding throughout (test): ≥ marks a high value that may be exact or a test limit, other limits are often not marked, values filed in µg/mL are converted to µM
Assay [1] concerns Staphylococcus aureus NCTC 8325.
Assay [2] concerns Escherichia coli ATCC 25922.
Assay [3] deals with Batrachochytrium dendrobatidis JEL-197.
Assay [4] relates to Candida albicans ATCC 90028.
Assay [5] relates to Staphylococcus aureus NCTC 10788.
In assay [6] the test system is Candida albicans NCPF 1467.
Assay [7] has as its system Escherichia coli NCTC 10418.
The test system of assay [8] is Escherichia coli ATCC 25726.
Assay [9] deals with Staphylococcus aureus ATCC 25923.
Assay [10] has as its system Bacillus subtilis 168.
The test system of assay [11] is Escherichia coli B.
Assay [12] deals with Staphylococcus aureus.
Assay [13] deals with Pseudomonas aeruginosa.
The test system of assay [14] is Bacillus subtilis IFO 3134.
For assay [15], the system named is Escherichia coli IFO 12734.
Assay [16] has as its system Staphylococcus aureus IFO 12732.
Assay [17] deals with Pseudomonas aeruginosa IFO 12582.
Assay [18] concerns Fusarium solani.
Assay [19] concerns Alternaria alternata.
The subject of assay [20] is Cladosporium herbarum.
The subject of assay [21] is Pseudomonas corrugata DSM 7228.
Assay [22] deals with Xanthomonas vesicatoria DSM 50861.
Assay [23] has as its system Pseudomonas syringae pv. syringae DSM 10604.
In assay [24] the test system is Clavibacter michiganensis subsp. michiganensis DSM 46294.
In assay [25] the test system is Staphylococcus aureus ATCC 6538.
The test system of assay [26] is Pectobacterium carotovorum subsp. carotovorum DSM 30168.
Assay [27] relates to Pseudomonas syringae pv. tomato DC3000.
Assay [28] has as its system Botrytis cinerea.
The subject of assay [29] is Pseudomonas aeruginosa ATCC 9027.
Assay [30] relates to Micrococcus luteus ATCC 9341.
Assay [31] deals with Staphylococcus aureus KCTC 1621.
Assay [32] deals with Escherichia coli KCTC 1682.
Assay [33] concerns Bacillus subtilis KCTC 1918.
Assay [34] concerns Streptococcus pyogenes KCTC 3096.
Assay [35] relates to Salmonella typhimurium KCTC 1926.
Assay [36] concerns Pseudomonas aeruginosa KCTC 1637.

Each structure is given as a SMILES string. In brackets after ≈: the same amount, converted by molar mass.

Usually MIC stands for the least concentration at which growth counts as inhibited. The low end stands for a more susceptible organism, the high end for a less susceptible organism.

As to `CC[C@H](C)[C@H](NC(=O)[C@@H]1CCCN1C(=O)[C@H](CC(C)C)NC(=O)[C@@H](N)Cc1ccccc1)C(=O)N[C@@H](CC(C)C)C(=O)N[C@@H](C)C(=O)N[C@@H](CO)C(=O)N[C@@H](CC(C)C)C(=O)N[C@@H](C)C(=O)N[C@@H](C)C(=O)N[C@@H](CCCCN)C(=O)N[C@@H](CC(C)C)C(=O)NCC(=O)N1CCC[C@H]1C(=O)N[C@@H](CCCCN)C(=O)N[C@@H](CC(C)C)C(=O)N[C@@H](Cc1ccccc1)C(=O)N[C@H]1CSSC[C@@H](C(=O)O)NC(=O)[C@H](CCCCN)NC(=O)[C@H](CCCCN)NC(=O)[C@H]([C@@H](C)O)NC(=O)[C@H](C(C)C)NC(=O)[C@H](CC(C)C)NC1=O` [FLPILASLAAKLGPKLFCLVTKKC], the MIC in [1] stood at 4 µM (≈ 10.3 µg/mL); in assay [2], 16 µM (≈ 41.2 µg/mL); in assay [3], 6.25 µM (≈ 16.1 µg/mL); in assay [4], 16 µM (≈ 41.2 µg/mL).
On to `CC[C@H](C)[C@H](NC(=O)CNC(=O)[C@H](CO)NC(=O)[C@H](C)NC(=O)[C@@H](NC(=O)[C@H](Cc1cnc[nH]1)NC(=O)[C@@H]1CCCN1C(=O)[C@H](CC(C)C)NC(=O)[C@H](CC(C)C)NC(=O)[C@H](CO)NC(=O)[C@H](CC(C)C)NC(=O)[C@@H](N)Cc1ccccc1)[C@@H](C)CC)C(=O)N[C@@H](C)C(=O)N[C@@H](CO)C(=O)N[C@@H](CC(C)C)C(=O)N[C@H](C(=O)N[C@@H](CO)C(=O)N[C@@H](CCCCN)C(=O)N[C@@H](Cc1ccccc1)C(N)=O)C(C)C` [FLSLLPHIASGIASLVSKF], for which the MIC in assay [5] is 5 µM (≈ 10 µg/mL); in assay [6] it was 15 µM (≈ 30 µg/mL); in [7], no less than 200 µM.
On to `CC[C@H](C)[C@H](NC(=O)CN)C(=O)N[C@@H](CC(C)C)C(=O)N[C@@H](CO)C(=O)N[C@@H](CO)C(=O)N[C@@H](Cc1ccccc1)C(=O)N[C@@H](CCCCN)C(=O)N[C@@H](CC(=O)O)C(=O)N[C@H](C(=O)N[C@@H](C)C(=O)N[C@@H](CCCCN)C(=O)NCC(=O)N[C@H](C(=O)N[C@@H](C)C(=O)N[C@@H](CCCCN)C(=O)N[C@@H](CC(N)=O)C(=O)N[C@H](C(=O)N[C@@H](C)C(=O)N[C@@H](C)C(=O)N[C@@H](CCC(N)=O)C(=O)N[C@@H](CC(C)C)C(=O)N[C@@H](CC(C)C)C(=O)N[C@@H](CC(=O)O)C(=O)N[C@@H](CCCCN)C(=O)N[C@@H](CC(C)C)C(=O)N[C@@H](CCCCN)C(=O)N[C@H]1CSSC[C@@H](C(=O)O)NC(=O)CNC(=O)[C@H]([C@@H](C)O)NC(=O)[C@H]([C@@H](C)CC)NC(=O)[C@H](CCCCN)NC1=O)C(C)C)C(C)C)C(C)C` [GILSSFKDVAKGVAKNVAAQLLDKLKCKITGC], for which the minimum inhibitory concentration (MIC) in assay [8] is 10 µM (≈ 33.2 µg/mL); in [3] it was no less than 50 µM; in assay [9], 20 µM (≈ 66.4 µg/mL).
Regarding `CC[C@H](C)[C@H](NC(=O)[C@H](CCCCN)NC(=O)[C@H](CCCCN)NC(=O)[C@H](CC(C)C)NC(=O)[C@H](CC(C)C)NC(=O)[C@H](CO)NC(=O)[C@H](CCSC)NC(=O)[C@H](Cc1c[nH]c2ccccc12)NC(=O)[C@H](CCCCN)NC(=O)CN)C(=O)N[C@@H](CC(C)C)C(=O)N[C@@H](CCCCN)C(N)=O` [GKWMSLLKKILK], the MIC in [10] stood at 1.2 µM (≈ 1.73 µg/mL); in assay [11], 2.7 µM (≈ 3.9 µg/mL); in assay [12], 6.3 µM (≈ 9.1 µg/mL); in assay [13] it was 13.8 µM (≈ 19.9 µg/mL).
Regarding `CC[C@H](C)[C@H](NC(=O)[C@H](C)NC(=O)[C@@H]1CCCN1C(=O)[C@@H](NC(=O)[C@@H](NC(=O)[C@H](CCCCN)NC(=O)[C@H](C)NC(=O)[C@H](C)NC(=O)[C@@H](NC(=O)[C@H](CCCCN)NC(=O)[C@H](C)NC(=O)[C@H](CC(C)C)NC(=O)[C@@H](NC(=O)CNC(=O)[C@H](Cc1ccccc1)NC(=O)[C@H](CC(C)C)NC(=O)CN)C(C)C)C(C)C)C(C)C)C(C)C)C(=O)N[C@@H](C)C(=O)N[C@@H](CCC(=O)O)C(=O)N[C@@H](Cc1cnc[nH]1)C(=O)N[C@@H](Cc1ccccc1)C(N)=O` [GLFGVLAKVAAKVVPAIAEHF], the MIC in assay [14] was 8 µM (≈ 17.1 µg/mL); in assay [15], 16 µM (≈ 34.2 µg/mL); in assay [16] it was 8 µM (≈ 17.1 µg/mL); in [17], no less than 32 µM.
For the molecule `CC[C@H](C)[C@H](N)C(=O)N[C@@H](CC(C)C)C(=O)N1CCC[C@H]1C(=O)N[C@@H](Cc1c[nH]c2ccccc12)C(=O)N[C@@H](CCCCN)C(=O)N[C@@H](Cc1c[nH]c2ccccc12)C(=O)N1CCC[C@H]1C(=O)N[C@@H](Cc1c[nH]c2ccccc12)C(=O)N[C@@H](Cc1c[nH]c2ccccc12)C(=O)N1CCC[C@H]1C(=O)N[C@@H](Cc1c[nH]c2ccccc12)C(=O)N[C@@H](CCCNC(=N)N)C(=O)N[C@@H](CCCNC(=N)N)C(=O)O` [ILPWKWPWWPWRR], the minimal inhibitory concentration (MIC) in assay [18] was 4.19 µM (≈ 8 µg/mL); in assay [19], 16.8 µM (≈ 32 µg/mL); in assay [20] it was no less than 33.6 µM; in assay [21] it was no less than 33.6 µM; in assay [22] it was 1.05 µM (≈ 2 µg/mL); in assay [23] it was no less than 33.6 µM. The MIC in assay [24] was 0.524 µM (≈ 1 µg/mL); in assay [25] it was 5.24 µM (≈ 10 µg/mL); in assay [26], no less than 33.6 µM; in [27], no less than 33.6 µM; in [28], 16.8 µM (≈ 32 µg/mL); in assay [29], greater than 105 µM. Further, the MIC in assay [30] came out at 1.6 µM (≈ 3.05 µg/mL).
Take `CC[C@H](C)[C@H](NC(=O)[C@H](CCCCN)NC(=O)[C@H](CCCCN)NC(=O)[C@H](Cc1ccccc1)NC(=O)[C@H](CC(C)C)NC(=O)[C@H](CCCCN)NC(=O)[C@H](Cc1c[nH]c2ccccc12)NC(=O)[C@@H](N)CCCCN)C(=O)N[C@@H](CCCCN)C(=O)N[C@@H](Cc1ccccc1)C(=O)N[C@@H](CC(C)C)C(=O)N[C@@H](Cc1cnc[nH]1)C(=O)N[C@@H](CO)C(=O)N[C@@H](C)C(=O)N[C@@H](CCCCN)C(=O)N[C@@H](CCCCN)C(=O)N[C@@H](Cc1ccccc1)C(N)=O` [KWKLFKKIKFLHSAKKF]: the MIC came to 3.12 µM (≈ 6.8 µg/mL) in assay [31]; 6.25 µM (≈ 13.6 µg/mL) in [32]; 1.56 µM (≈ 3.4 µg/mL) in [33]; 0.78 µM (≈ 1.7 µg/mL) in assay [34]; 0.78 µM (≈ 1.7 µg/mL) in [35]; 1.56 µM (≈ 3.4 µg/mL) in assay [36].
Turning to `CC[C@H](C)[C@H](NC(=O)[C@H](CC(C)C)NC(=O)[C@@H](N)CC(C)C)C(=O)N[C@@H](C)C(=O)N[C@@H](C)C(=O)N[C@@H](Cc1ccccc1)C(=O)N[C@@H](CCCCN)C(=O)N[C@@H](CCCCN)C(=O)N[C@@H](CC(C)C)C(=O)N[C@H](C(=O)N[C@@H](CCCCN)C(=O)N[C@@H](CCCCN)C(N)=O)C(C)C` [LLIAAFKKLVKK], the minimal inhibitory concentration (MIC) in assay [19] was no less than 72.9 µM; in assay [20], no less than 72.9 µM; in assay [21], 29.2 µM (≈ 40 µg/mL); in assay [22] it was 29.2 µM (≈ 40 µg/mL); in [23], 29.2 µM (≈ 40 µg/mL); in [24] it was 14.6 µM (≈ 20 µg/mL). The MIC is 29.2 µM (≈ 40 µg/mL) in assay [26], 29.2 µM (≈ 40 µg/mL) in assay [27] and no less than 72.9 µM in assay [28].
